Measured values: US11399541B2, “Storage-stable microbicidal concentrates and use thereof as preservatives” (Vink Chemicals GmbH & Co. KG, priority 2017, dated 2022)
Marks after values point to notes of the source that are not given here.

Key:
[1] = test system: Staphylococcus aureus; test: Staphylococcus aureus Germ Count Reduction Test; assay type: cell-based; conditions: use-concentration (0.50% Composition 1; 0.0025% amine; 0.0050% butyl-BIT; 0.50% phenoxyethanol), initial count approx. 10^7 cfu/ml; for semi-quantitative assessment of the microbial growth of the streaks, Contact time [min] 2: contact time 2 min; for semi-quantitative assessment of the microbial growth of the streaks, Contact time [min] 5: contact time 5 min; for semi-quantitative assessment of the microbial growth of the streaks, Contact time [min] 10: contact time 10 min; for semi-quantitative assessment of the microbial growth of the streaks, Contact time [min] 60: contact time 60 min
Protocol: (§1) Dilutions of the samples are prepared with sterile tap water. 25 ml portions of the end solutions are inoculated with 0.1 ml microorganism suspension (initial microorganism count approx. 10^7 cfu/ml) and stirred.
For the reduction test with Staphylococcus aureus the solutions are streaked out onto tryptone soya agar after 2,5,10 and 60 minutes.
(§2) The cultures are incubated for 48 hours at 37° C., except for Aspergillus brasiliensis, which is incubated for 72 hours at 25-27° C. The evaluation is made on the basis of semi-quantitative assessment of the microbial growth of the streaks.

[2] = test system: Aspergillus brasiliensis; test: Aspergillus brasiliensis Germ Count Reduction Test; assay type: cell-based; conditions: use-concentration (0.50% Composition 1; 0.0025% amine; 0.0050% butyl-BIT; 0.50% phenoxyethanol), initial count approx. 10^7 cfu/ml; for semi-quantitative assessment of the microbial growth of the streaks, Contact time [h] 1: contact time 1 h; for semi-quantitative assessment of the microbial growth of the streaks, Contact time [h] 3: contact time 3 h; for semi-quantitative assessment of the microbial growth of the streaks, Contact time [h] 6: contact time 6 h; for semi-quantitative assessment of the microbial growth of the streaks, Contact time [h] 24: contact time 24 h
Protocol: as §1
For testing the reduction with Aspergillus brasiliensis the solutions are streaked out onto Sabouraud-dextrose 4% agar after 1, 3, 6 and 24 hours.
as §2

| SMILES | semi-quantitative assessment of the microbial growth of the streaks, Contact time [min] 2 [1] | semi-quantitative assessment of the microbial growth of the streaks, Contact time [min] 5 [1] | semi-quantitative assessment of the microbial growth of the streaks, Contact time [min] 10 [1] | semi-quantitative assessment of the microbial growth of the streaks, Contact time [min] 60 [1] | semi-quantitative assessment of the microbial growth of the streaks, Contact time [h] 1 [2] | semi-quantitative assessment of the microbial growth of the streaks, Contact time [h] 3 [2] | semi-quantitative assessment of the microbial growth of the streaks, Contact time [h] 6 [2] | semi-quantitative assessment of the microbial growth of the streaks, Contact time [h] 24 [2] |
| --- | --- | --- | --- | --- | --- | --- | --- | --- |
| CCCCCCCCCCCCN(CCCN)CCCN [N,N bis(3-aminopropyl)-dodecylamine] | +++ (= heavy growth approx. 10^4) | ++ (= moderate growth approx. 10^3) | ++ (= moderate growth approx. 10^3) | − (= no growth <100) | C (= surface covered approx. 10^6) | C (= surface covered approx. 10^6) | ++++ (= massive growth approx. 10^5) | ++++ (= massive growth approx. 10^5) |
| CCCCn1sc2ccccc2c1=O [2-butyl-1,2-benzisothiazolin-3-one] | ++++ (= massive growth approx. 10^5) | ++++ (= massive growth approx. 10^5) | ++++ (= massive growth approx. 10^5) | +++ (= heavy growth approx. 10^4) | ++++ (= massive growth approx. 10^5) | ++++ (= massive growth approx. 10^5) | ++++ (= massive growth approx. 10^5) | ++++ (= massive growth approx. 10^5) |
